Several values for one entry are separate records, joined by “and”; a condition that tells them apart may be missing. Equal values may be shown once. Read-outs that look alike come from different tables or passages of the source.
What was measured:
[1] = system: P. falciparum transmission to Anopheles stephensi mosquitoes; assay: P. falciparum standard membrane-feeding assay (SMFA), luciferase oocyst readout; type: in vivo, Plasmodium falciparum; settings: 10 µM; for prevalence of infection, % of the DMSO control / mean normalised luciferase intensity: indirect mode; for mean normalised luciferase intensity: 24 h gametocyte incubation, oocysts 8 days later; for Average oocyst intensity / Prevalence: mode indirect, per experiment
Description: SMFAs were performed commercially by TropiQ Health Sciences (Nijmegen, The Netherlands)[26]. Cultures of mature stage V gametocytes of P. falciparum expressing a GFP-Luciferase fusion protein under the control of the hsp70 promoter were treated with DMSO or 10 µM of test compound for 24 h (indirect mode). They were then mixed with uninfected erythrocytes and pelleted. The cell pellet was resuspended in human serum to form the blood meal and fed to Anopheles stephensi mosquitoes. […] Eight days after infection, mosquitoes were individually processed and their lysate assessed for luciferase activity in comparison to uninfected mosquitoes.

[2] = target: T1, recombinant luciferase (Photinus pyralis) (Photinus pyralis, UniProt P08659); assay: Recombinant luciferase inhibition assay; type: biochemical
T1 construct: purchased Promega E1701
Description: A counter-screen to the P. berghei liver stage assay was run against recombinant luciferase (Photinus pyralis) to measure the intrinsic bioluminescence inhibition from select compounds. Briefly, compounds were plated in 12-point serial dose response (50–2.82 × 10^−4 µM) in 1536-well opaque-bottom plates (789173-F, Greiner Bio-One). A 20 pM QuantiLum® Recombinant Luciferase (E1701, Promega) containing solution was made in screening media (DMEM, 11965–092, Invitrogen; 5% FBS, 35–011-CV, Corning; 5x Pen Strep Glutamine, 10378–016, Invitrogen), and 8 µl were added to each well. After 1 h incubation at room temperature, 2 µl of Bright-Glo™ (E2610, Promega) were dispensed per well, and bioluminescence was immediately measured using the EnVision microplate reader (PerkinElmer). DMSO (0.5%) and Luciferase Inhibitor-2 (9.8 µM) (119114, MilliporeSigma) served as negative and positive controls, respectively.

[3] = system: P. falciparum female gametocytes; assay: Pf DGFA wash-out format, female readout; type: cell-based; settings: Plasmodium falciparum; 48h preincubation/wash-out
NF54 stage V gametocytes = assay: Gametocytocidal MitoTracker-based viability assay (SaLSSA); type: cell-based, Plasmodium falciparum NF54; settings: for IC50: Plasmodium falciparum, NF54, 72h incubation, read-out: Pf Stage V GCT (mitotracker assay) IC50
Description: As another independent assessment of the metabolic viability of compound-treated stage V gametocytes, the Saponin-lysis Sexual Stage Assay (SaLSSA) was employed. A volume of 100 nl of test compounds were pre-dispensed in 384-well plates (781091-2B, Greiner) in 12-point dose response (25 µM to 1.41 × 10^−4 µM), prior to the addition of synchronous NF54 stage V gametocytes (40 µl at 0.70% gametocytaemia). Assay plates were then incubated for 72 h in a low oxygen environment (92% N2, 5% CO2, 3%O2) before a 10 µl MitoTracker Red CMXRos (2.5 µM) and saponin solution (0.13%w/v) was added. Plates were returned to 37 °C for 1 h to allow for complete red blood cell lysis, after which viable gametocytes were detected using an Operetta high-content imaging system. Analysis was performed using the Harmony package software, with potency calculated relative to puromycin (positive control) and DMSO (negative control).

[4] = system: P. falciparum male gametocytes; assay: Pf DGFA wash-out format, male readout; type: cell-based; settings: Plasmodium falciparum; 48h preincubation/wash-out
[5] = system: Stage IV–V 3D7 gametocytes; assay: Gametocytocidal ATP-based bioluminescence assay (GC-ATP); type: cell-based, Plasmodium falciparum 3D7; settings: for IC50: Plasmodium falciparum, 3D7, 48h incubation, read-out: Pf late stage gametocyte (ATP depletion) IC50
Description: The metabolic viability of late stage gametocytes was determined using a gametocyte ATP bioluminescence assay. Stage IV–V 3D7 gametocyte cultures were double-purified by density gradient sedimentation over NycoPrep® followed by magnetic isolation. Then, parasites (50 µl per well containing 12,500 gametocytes) were added to compound pre-dispensed 384-well plates (781091, Greiner) and incubated at 37 °C for 48 h under 5% CO2/3% O2/92% N2. BacTiter-Glo® kit (G8231, Promega) was used to determine the ATP levels of viable parasites according to manufacturer’s instructions. After reagent addition (50 µl per well), luminescence of the plates was measured using a microplate reader (HTS counter Victor, Wallac).

[6] = system: P. berghei 507 strain in mice, transmission to Anopheles stephensi; assay: P. berghei mosquito (direct) feeding assay in infected mice; type: in vivo, Plasmodium berghei; settings: for transmission blocking efficacy at the oocyst level: 24 h before mosquito feeding; for suppression of gametocytaemia compared to vehicle-only controls: 24 h exposure; for effect on asexual parasitaemia: single dose; for Infection Prevalence (%) / Mean oocysts per mosquito / Asexual parasitemia (%) Before treatment / Gametocytemia (%) Before treatment / Asexual parasitemia (%) 24hr After treatment / Gametocytemia (%) 24hr After treatment: per mouse; for Asexual parasitemia (%) Before treatment / Gametocytemia (%) Before treatment / Asexual parasitemia (%) 24hr After treatment / Gametocytemia (%) 24hr After treatment: 50mg/kg; for Asexual parasitemia (%) Before treatment / Gametocytemia (%) Before treatment: baseline
Description: Six- to eight-week female T0 mice were treated with phenylhydrazine 3 days prior to intraperitoneal (IP) inoculation with 100 µl of mouse blood infected with the constitutively GFP expressing P. berghei 507 strain[39]. On day 3 after infection, thin blood smears were taken from tail blood to quantify parasitaemia and gametocytaemia. […] […] Twenty-four hours after feeding, unfed mosquitoes were removed and remaining mosquitoes maintained for a further 9 days on sucrose solution. Mosquito midguts were then dissected, imaged and oocysts quantified by semi-automated computer analysis.

[7] = 1h incubation, read-out: Recombinant luciferase assay IC50
[8] = Dose 30min prior, listed as DDD881

T1 sequence (P08659 whole entry): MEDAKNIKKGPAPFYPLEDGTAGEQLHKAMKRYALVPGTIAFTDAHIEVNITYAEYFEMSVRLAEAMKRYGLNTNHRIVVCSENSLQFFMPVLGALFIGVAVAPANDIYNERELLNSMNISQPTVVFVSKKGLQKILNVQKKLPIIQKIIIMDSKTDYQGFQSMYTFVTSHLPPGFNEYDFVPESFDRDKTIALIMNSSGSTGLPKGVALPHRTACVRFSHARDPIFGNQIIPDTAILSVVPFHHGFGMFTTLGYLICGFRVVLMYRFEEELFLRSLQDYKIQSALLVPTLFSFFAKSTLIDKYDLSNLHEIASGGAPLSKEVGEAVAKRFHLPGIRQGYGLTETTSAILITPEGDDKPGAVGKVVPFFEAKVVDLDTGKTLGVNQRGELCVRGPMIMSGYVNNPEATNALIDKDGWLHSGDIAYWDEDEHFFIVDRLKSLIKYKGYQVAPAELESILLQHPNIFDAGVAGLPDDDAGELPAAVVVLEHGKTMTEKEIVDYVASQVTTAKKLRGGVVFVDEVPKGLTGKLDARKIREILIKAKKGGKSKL

Row | SMILES | IC50 [2, 7] [µM] | IC50 [3] [µM] | IC50 (NF54 stage V gametocytes) [µM] | IC50 [4] [µM] | IC50 [5] [µM] | other results
1 | O=C(CCl)Nc1ccc(Br)cc1 [BPCA, N-(4-bromophenyl)-2-chloroacetamide] | – | – | – | – | – | prevalence of infection, % of the DMSO control [1]: 25.12%; mean normalised luciferase intensity [1]: 5.27 arbitrary units
2 | CC(=O)c1c(C)nn(CC(=O)Nc2ccc(Br)cc2)c1C [DDD01027599] | > 50 | 3.11 | 5.55 | 0.97 | 1.61 | –
3 | O=S(=O)(NCC1(O)CCOc2ccccc21)c1ccccc1F (stereo not shown) [DDD01028073] | > 50 | > 12.5 | > 25 | > 12.5 | > 10 | –
4 | Cc1ccc(S(=O)(=O)NCC2(O)CCOc3ccccc32)s1 (stereo not shown) [DDD01028074] | > 50 | > 12.5 | > 25 | > 12.5 | > 10 | –
5 | O=S(=O)(NCC1(O)CCOc2ccccc21)c1ccc(Cl)s1 (stereo not shown) [DDD01028075] | > 50 | > 12.5 | > 25 | > 12.5 | > 10 | –
6 | O=S(=O)(NCC1(O)CCOc2ccccc21)c1ccccc1Br (stereo not shown) [DDD01028076] | > 50 | > 12.5 | > 25 | > 12.5 | > 10 | –
7 | COc1cccc(-n2ccc3nc(N4CCCC4)ncc3c2=O)c1 [DDD01034957] | 6.7 | – | > 25 | – | > 10 | –
8 | O=S(=O)(NCC1(O)CCOc2ccccc21)c1cccs1 (stereo not shown) [DDD01035879] | > 50 | > 12.5 | > 25 | > 12.5 | > 10 | –
9 | O=S(=O)(NCC1(O)CCOc2ccccc21)c1ccc(Br)s1 (stereo not shown) [DDD01035881] | > 50 | > 12.5 | > 25 | > 12.5 | > 10 | Average oocyst intensity ([1]; listed as DDD881): 4.2 and 4.1; Prevalence ([1]; listed as DDD881): 1.4% and 0.0%; blockade on oocyst intensity ([6]; 50 mg kg^−1 IP, 30 min before the feed): 99.6%; transmission blocking efficacy at the oocyst level ([6]; 50 mg kg^−1 IP): no transmission blocking efficacy; suppression of gametocytaemia compared to vehicle-only controls ([6]; 50 mg kg^−1 IP): not impacted; effect on asexual parasitaemia ([6]; 50 mg kg^−1 IP): not impacted; Infection Prevalence (%) [6, 8]: 54.35% and 23.08%; Mean oocysts per mosquito [6, 8]: 1.43 and 0.60; Infection Prevalence (%) ([6]; Dose 24hr prior to feeding): 100%; Mean oocysts per mosquito ([6]; Dose 24hr prior to feeding, listed as DDD881): 330.22 and 190.61
10 | Cc1cccc(NC(=O)c2cccc(OCc3nnnn3C)c2)n1 [DDD01038630] | > 50 | – | – | – | > 10 | –
11 | CC(c1ccco1)N(C(=O)CNc1ccc(C#N)cc1)C1CC1 (stereo not shown) [DDD01062645] | > 50 | > 12.5 | > 25 | > 12.5 | > 10 | –
12 | Cc1ccc(CN(c2cc(C)nc3nc(C(F)(F)F)nn23)C2CC2)cc1 [DDD01063654] | > 50 | – | > 10 | – | > 10 | –
13 | Cc1cc(C)c(CNCC(O)c2ccc(F)c(F)c2)c(C)c1.Cl (stereo not shown) [DDD01065539] | – | – | – | – | > 10 | IC50 [2]: > 50 µM
14 | CC(NCC1CCN(CCO)CC1)c1ccc(OC(F)(F)F)cc1 (stereo not shown) [DDD01073716] | > 50 | 1.22 | 7.07 | 1.08 | > 10 | –
15 | CN(Cc1cccc(F)c1)C(=O)CS(=O)(=O)Cc1c(Cl)cccc1Cl [DDD01077188] | > 50 | – | – | – | > 10 | –
16 | CN1CCC(NCC(O)c2cccc(OCc3ccccc3)c2)CC1 (stereo not shown) [DDD01079164] | > 50 | 1.07 | 4.97 | 1.3 | 6.29 | –
17 | CNc1cc(C)nc(NC2CCCN(C3Cc4ccccc4C3)C2)n1 (stereo not shown) [DDD01243506] | > 50 | – | – | – | > 10 | IC50 ([2]; read-out: Recombinant luciferase IC50): ≥ 50 µM
18 | OC1(CN2CCC(Oc3cccc(C(F)(F)F)c3)CC2)CCNC1 (stereo not shown) [DDD01245291] | > 50 | 1.51 | > 12.5 | 0.68 | > 10 | prevalence of infection, % of the DMSO control [1]: no infected mosquitoes observed; mean normalised luciferase intensity [1]: 1.37 arbitrary units; Prevalence [1]: 0.0%; Average oocyst intensity ([1]; listed as DDD291): 2.7 and 3.2 and 3.3; transmission blocking efficacy at the oocyst level ([6]; 50 mg kg^−1 IP): not possible to measure a reduction in transmission at the oocyst level; suppression of gametocytaemia compared to vehicle-only controls ([6]; 50 mg kg^−1 IP): ~ 6 fold; effect on asexual parasitaemia ([6]; 50 mg kg^−1 IP): did not affect asexual parasitaemia; Infection Prevalence (%) ([6]; Dose 24hr prior to feeding): 100%; Mean oocysts per mosquito ([6]; Dose 24hr prior to feeding, listed as DDD291): 239.06 and 211.28; Asexual parasitemia (%) Before treatment ([6]; listed as DDD291, 50 mg/kg): 0.86% and 0.55%; Gametocytemia (%) Before treatment ([6]; listed as DDD291, 50 mg/kg): 0.32% and 0.16%; Asexual parasitemia (%) 24hr After treatment ([6]; listed as DDD291, 50 mg/kg): 5.70% and 4.55%; Gametocytemia (%) 24hr After treatment ([6]; listed as DDD291, 50 mg/kg): 0.30% and 0.51%
19 | CC(c1cccs1)N(C)Cc1cnc(-c2ccccn2)nc1 (stereo not shown) [DDD01246628] | 4.28 | – | 0.2 | – | 2.31 | –
20 | CC(C)CN1CCn2nc(CNc3ncnc4[nH]ccc34)cc2C1 [DDD01249504] | > 50 | > 25 | > 25 | 2.74 | > 10 | Asexual parasitemia (%) Before treatment ([6]; listed as DDD504, 50 mg/kg): 0.74% and 0.98%; Gametocytemia (%) Before treatment ([6]; listed as DDD504, 50 mg/kg): 0.21% and 0.15%; Asexual parasitemia (%) 24hr After treatment ([6]; listed as DDD504, 50 mg/kg): 5.35% and 7.03%; Gametocytemia (%) 24hr After treatment ([6]; listed as DDD504, 50 mg/kg): 1.21% and 1.88%
21 | CCCn1nccc1C(=O)N1CCN(C2CCc3ccccc3C2)CC1 (stereo not shown) [DDD01251134] | > 50 | – | – | – | > 10 | –
22 | Cc1nn(C)c(Oc2ccc(Cl)cc2)c1CN1CCC(CN)C1 (stereo not shown) [DDD01254274] | > 50 | > 25 | > 12.5 | 2.84 | 6.86 | –
23 | CCc1ccc(C2c3nc[nH]c3CCN2Cc2nccn2CC)nc1 (stereo not shown) [DDD01254473] | > 50 | 0.71 | 0.08 | 5.74 | 0.53 | activity in the mitotracker assay (NF54 stage V gametocytes; profiling): submicromolar; activity in the GC-ATP assay ([5]; profiling): submicromolar
24 | CCOc1ccc2ccccc2c1CNCC1CCNCC1.Cl.Cl [DDD01255740] | > 50 | 1.65 | 3.57 | 0.67 | > 10 | –
25 | Cc1ccc(-c2cc(C(=O)NCCC3=CCCCC3)[nH]n2)o1 [DDD01255968] | 17.9 | > 12.5 | > 25 | 2.19 | > 10 | –
26 | CCn1ncc(Br)c1CN(C)S(=O)(=O)c1ccc(C)cc1 [DDD01259521] | > 50 | – | > 25 | – | > 10 | –
27 | c1cnnc(N2CCCC2CNc2ncnc3sccc23)c1 (stereo not shown) [DDD01299704] | > 50 | – | – | – | > 10 | –
